Here are results for two compounds from paper PMC12501029, “Discovery of a CNS active GSK3 degrader using orthogonally reactive linker screening” (Nature Communications, 2025).

In one data set the target is T1, GSK3α (Homo sapiens, UniProt P49840).
T1 construct: Endogenous GSK3 paralog degradation with compounds 24 and 26 and negative controls 27 and 28 in HEK293 cells; host or cells: HEK293
Kind of data set: Immunoblot degradation of endogenous GSK3α in HEK293 cells. The format is cell-based. As to conditions: 10 nM, 2 h. The procedure: (§1) HEK293, HAP1, HAP1 CRBN KO and SH-SY5Y cells were plated in either 6 cm plates or 6-well plates at varying densities (0.5–0.7 × 10^6 cells per plate or wells), and MEF cells were plated in 10 cm plates (1–1.2 × 10^6 cells per plate) depending on experimental set up in respective culturing condition as described above. Stock solutions of compounds were prepared as 10 mM in DMSO (Sigma–Aldrich). Working dilutions were made up fresh in DMSO and culturing media or differentiation media was refreshed prior to any compound treatments. For mode of action studies, cells were pre-treated with inhibitors for 2 h: 1 µM MG132 (Merck, 474790-5 mg), 1 µM MLN4924 (Merck, 5054770001) or 1 µM GSK3 inhibitor (compound 29), before treating with PROTACs for 2, 4 or 24 h as indicated in figure legends. Cells were washed twice with ice-cold PBS (Gibco), harvested in PBS and pelleted, cells were resuspended in RIPA buffer supplemented with complete EDTA-free protease inhibitor cocktail (Roche,11873580001, 1/10 mL) and phosSTOP (Roche, 04906845001, 1 tablet/10 mL) for 20 min lysis on ice then cleared via centrifugation at 16,000 × g, 4 °C for 20 min. […] Following clearance of lysates, protein concentrations were determined by the BCA assay (Fisher Scientific, 23225) or Bradford assay (Bio-rad). […]
On the technique in general: Immunoblotting shows a protein as a band on a membrane.

Data set [1] is described as follows: Plasma protein binding, equilibrium dialysis, rat. Format: in vitro ADME. The note with it: male, Han Wistar, 5 h dialysis, read-out: Plasma Protein Binding (Fu) Rat. On the procedure: A 96-well equilibrium dialysis apparatus was used to determine the free fraction in plasma for each compound (HT Dialysis LLC, Gales Ferry, CT). Membranes (12–14 kDA cut-off) were conditioned in deionised water for 60 min, followed by conditioning in 80:20 deionised water: ethanol for 20 min, and then rinsed in isotonic buffer before use. Female CD1 mouse, Male rat Han Wistar and human plasma was removed from the freezer and allowed to thaw on the day of experiment. Thawed plasma was then centrifuged (Allegra X12-R, Beckman Coulter, USA), spiked with test compound (final concentration 10 μg/mL), and 150 μL aliquots (n = 6 replicate determinations) loaded into the 96-well equilibrium dialysis plate. Dialysis vs isotonic buffer (150 μL) was carried out for 5 h in a temperature-controlled incubator at ca. 37 °C (Barworld Scientific Ltd, UK) using an orbital microplate shaker at 100 revolutions/minute (Barworld Scientific Ltd, UK). At the end of the incubation period, 50 μL aliquots of plasma or buffer were transferred to a 96-well 2.1 mL Waters ^TM plate and the composition in each well balanced with control fluid (50 μL), such that the volume of buffer to plasma is the same. […] All samples were analysed by UPLC-MS/MS. The unbound fraction was determined as the ratio of the peak area in buffer to that in plasma.
For orientation: In equilibrium dialysis free small molecules cross a membrane that holds back macromolecules.

The next data set concerns GSK3. Put plainly: Mode of action rescue studies in HEK293 cells (pre-treatment with MG132, MLN4924 or GSK3 inhibitor 29). The format is cell-based, human. The note with it: 2 h pre-treatment, 1 µM each inhibitor. On the procedure:
as §1

T1 sequence (P49840 whole entry): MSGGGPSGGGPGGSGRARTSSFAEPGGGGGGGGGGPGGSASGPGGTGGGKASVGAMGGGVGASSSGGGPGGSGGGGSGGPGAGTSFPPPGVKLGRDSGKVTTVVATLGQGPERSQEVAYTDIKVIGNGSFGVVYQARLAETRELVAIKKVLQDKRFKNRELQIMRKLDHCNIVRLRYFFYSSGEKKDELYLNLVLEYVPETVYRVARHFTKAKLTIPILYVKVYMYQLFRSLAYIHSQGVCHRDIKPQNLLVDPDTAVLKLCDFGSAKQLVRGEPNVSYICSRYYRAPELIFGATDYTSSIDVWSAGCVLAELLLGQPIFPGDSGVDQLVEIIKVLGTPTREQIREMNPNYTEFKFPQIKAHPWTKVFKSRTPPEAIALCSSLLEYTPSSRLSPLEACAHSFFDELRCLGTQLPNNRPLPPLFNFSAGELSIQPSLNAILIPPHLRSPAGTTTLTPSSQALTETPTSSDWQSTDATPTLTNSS

With `Cn1nc(N2CCC(=O)NC2=O)c2ccc(CN3CCN(Cc4ccc(-c5cn(-c6ccc(-c7cn8nccc(C(=O)Nc9cnccc9N9CCOCC9)c8n7)cc6)nn5)nc4)CC3)cc21` [compound 24], the “endogenous GSK3α degradation” value on GSK3α was “almost complete”. Besides, in data set [1], the fraction unbound at 5 h, 10 μg/mL stood at 0.00064. The “GSK3 degradation in presence of MG132, MLN4924 or GSK3 inhibitor 29” value in the data set on GSK3 is on record as “rescued”.
On to `Cn1nc(N2CCC(=O)NC2=O)c2ccc(CN3CCN(CCCc4cn(-c5ccc(-c6cn7nccc(C(=O)Nc8cnccc8N8CCOCC8)c7n6)cc5)nn4)CC3)cc21` [compound 26], for which, at GSK3α, the “endogenous GSK3α degradation” value is “almost complete”. For the same compound, the fraction unbound at 5 h, 10 μg/mL in data set [1] turned out to be 0.01. Besides, in the data set with GSK3, the “GSK3 degradation in presence of MG132, MLN4924 or GSK3 inhibitor 29” value is on record as “rescued”.
